# Patent publication US20070219236A1, “Dialkoxy-Imidazopyridines Derivatives” (Atlanta Pharma AG, priority 2004, published 2007)
# Tested on: pentagastrin-stimulated acid secretion of the perfused rat stomach
# Test: Secretion-inhibiting action on the perfused rat stomach (pentagastrin-stimulated acid secretion)
# Format: in vivo
# Conditions: anesthetized CD rat, female; dose 2 μmol/kg i.d. (intraduodenal); pentagastrin 1 μg/kg i.v. continuous infusion
# Description: Testing of the Secretion-Inhibiting Action on the Perfused Rat Stomach
# In Table A which follows, the influence of the compounds according to the invention on the pentagastrin-stimulated acid secretion of the perfused rat stomach after intraduodenal administration in vivo is shown.
# The abdomen of anesthetized rats (CD rat, female, 200-250 g; 1.5 g/kg i.m. urethane) was opened after tracheotomy by a median upper abdominal incision and a PVC catheter was fixed transorally in the esophagus and another via the pylorus such that the ends of the tubes just projected into the gastric lumen. The catheter leading from the pylorus led outward into the right abdominal wall through a side opening.
# After thorough rinsing (about 50-100 ml), warm (37° C.) physiological NaCl solution was continuously passed through the stomach (0.5 ml/min, pH 6.8-6.9; Braun-Unita I). The pH (pH meter 632, glass electrode EA 147; Φ=5 mm, Metrohm) and, by titration with a freshly prepared 0.01N NaOH solution to pH 7 (Dosimat 665 Metrohm), the secreted HCl were determined in the effluent in each case collected at an interval of 15 minutes.
# The gastric secretion was stimulated by continuous infusion of 1 μg/kg (=1.65 ml/h) of i.v. pentagastrin (left femoral vein) about 30 min after the end of the operation (i.e. after determination of 2 preliminary fractions). The substances to be tested were administered intraduodenally in a 2.5 ml/kg liquid volume 60 min after the start of the continuous pentagastrin infusion.
# The body temperature of the animals was kept at a constant 37.8-38° C. by infrared irradiation and heat pads (automatic, stepless control by means of a rectal temperature sensor).
row,SMILES,Inhibition of acid secretion (%)
1,"COc1ccc2nc([S@@+]([O-])Cc3nccc(OC)c3OC)[nH]c2n1 [Example 2, (S)-2-(3,4-Dimethoxy-pyridine-2-ylmethanesulfinyl)-5-methoxy-3H-imidazo[4,5-b]pyridine]",>50%
2,"COc1ccc2nc([S@+]([O-])Cc3nccc(OC)c3OC)[nH]c2n1 [Example 3, (R)-2-(3,4-Dimethoxy-pyridine-2-ylmethanesulfinyl)-5-methoxy-3H-imidazo[4,5-b]pyridine]",>50%
3,"COc1ccc2nc([S+]([O-])Cc3nccc(OC)c3OC)[nH]c2n1 (stereo not drawn) [Example 1, 2-(3,4-Dimethoxy-pyridine-2-ylmethanesulfinyl)-5-methoxy-3H-imidazo[4,5-b]pyridine]",>50%
